Reference: patent publication US10874743B2, “IRAK degraders and uses thereof” (Kymera Therapeutics, Inc., priority 2017, dated 2020)

Molecular target: T1, IRAK4 (Homo sapiens, UniProt Q9NWZ3)
T1 sequence (Q9NWZ3 1-460): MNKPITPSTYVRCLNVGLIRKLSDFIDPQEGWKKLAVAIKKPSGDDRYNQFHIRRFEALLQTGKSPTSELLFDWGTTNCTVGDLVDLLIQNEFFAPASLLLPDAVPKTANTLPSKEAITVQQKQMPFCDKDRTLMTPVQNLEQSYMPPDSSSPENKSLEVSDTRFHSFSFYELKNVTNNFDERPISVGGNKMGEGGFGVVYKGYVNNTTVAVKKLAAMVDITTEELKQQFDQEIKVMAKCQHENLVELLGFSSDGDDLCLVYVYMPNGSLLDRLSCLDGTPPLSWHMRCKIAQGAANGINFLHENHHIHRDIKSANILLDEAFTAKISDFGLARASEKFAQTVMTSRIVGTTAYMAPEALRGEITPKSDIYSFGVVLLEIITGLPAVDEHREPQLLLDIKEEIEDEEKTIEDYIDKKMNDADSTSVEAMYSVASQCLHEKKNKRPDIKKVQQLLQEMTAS
Experiment: OCI-LY-10 degradation assay (western blot, % IRAK4 degraded after 4 hours)
Format: cell-based
Set-up: endogenous in cells; host or cells: OCI-LY10
Settings: OCI-LY10 cells; for OCI-LY10 % IRAK4 Degradation: IRAK4 degraded after 4 hours, western blot; for OCI-LY10 % IRAK4 Degradation (0.01 uM) / OCI-LY10 % IRAK4 Degradation (0.1 uM) / OCI-LY10 % IRAK4 Degradation (1 uM): 4 hours; for OCI-LY10 % IRAK4 Degradation (0.01 uM): 0.01 uM compound; for OCI-LY10 % IRAK4 Degradation (0.1 uM): 0.1 uM compound; for OCI-LY10 % IRAK4 Degradation (1 uM): 1 uM compound
Procedure, shortened: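 IRAK4 loss after 4 h at 37° C was scored A (>50%), B (>20-50%) or C (<20%) from infrared western blots of RIPA lysates, 20-25 μg protein per lane. Compound was applied at 0.003-10 μM final to OCI-LY10 cells cultured in RPMI-1640 with 20% FBS and 55 μM 2-ME.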

Structure (SMILES)	OCI-LY10 % IRAK4 Degradation	OCI-LY10 % IRAK4 Degradation (0.01 uM)	OCI-LY10 % IRAK4 Degradation (0.1 uM)	OCI-LY10 % IRAK4 Degradation (1 uM)
N#Cc1cnc2c(cnn2-c2cc(NC3CC3)c(C(=O)N[C@H]3C[C@H](COCCOCCOCCNc4cccc5c4C(=O)N(C4CCC(=O)NC4=O)C5=O)C3)cn2)c1 (stereo partly drawn) [I-34]	C (<20% degradation)			
O=C1CCC(N2C(=O)c3ccc(CCCNCc4ccc(-n5cc(NC(=O)c6coc(-c7ccncc7)n6)c(C(F)F)n5)cc4)cc3C2=O)C(=O)N1 (stereo not drawn) [I-380]		C (<20% degradation)	C (<20% degradation)	C (<20% degradation)
NC(=O)c1nn(-c2ccc(C(=O)NCCOCCOCCOCCCc3cccc4c3CN(C3CCC(=O)NC3=O)C4=O)cc2)cc1NC(=O)c1coc(-c2ccnc(NCC3CC3)c2)n1 (stereo not drawn) [I-238]		C (<20% degradation)	B (>20-50% degradation)	A (>50% degradation)
N#Cc1cnc2c(cnn2-c2cc(NC3CC3)c(C(=O)NCC(F)COCCOCCNC(=O)COc3cccc4c3C(=O)N(C3CCC(=O)NC3=O)C4=O)cn2)c1 (stereo not drawn) [I-95, 6-(5-Cyanopyrazolo[3,4-b]pyridin-1-yl)-4-(cyclopropylamino)-N-[3-[2-[2-[[2-[2-(2,6-dioxo-3-piperidyl)-1,3-dioxo-isoindolin-4-yl]oxyacetyl]amino]ethoxy]ethoxy]-2-fluoro-propyl]pyridine-3-carboxamide]	C (<20% degradation)			
N#Cc1cnc2c(cnn2-c2cc(NC3CC3)c(C(=O)NCC(F)COCCNc3cccc4c3C(=O)N(C3CCC(=O)NC3=O)C4=O)cn2)c1 (stereo not drawn) [I-82]	C (<20% degradation)			
O=C1CCC(N2C(=O)c3cccc(NCCOCCOCC(F)CNC(=O)c4cnc(Nc5ccc6cnccc6n5)cc4NC4CC4)c3C2=O)C(=O)N1 (stereo not drawn) [I-61]	C (<20% degradation)			
CC(COCC(F)CNC(=O)c1cnc(Nc2ccc3cnccc3n2)cc1NC1CC1)OCCOCCNc1cccc2c1C(=O)N(C1CCC(=O)NC1=O)C2=O (stereo not drawn) [I-70]	C (<20% degradation)			
NC(=O)c1nn(-c2ccc(C(=O)NCCOCCOCCNc3cccc4c3C(=O)N(C3CCC(=O)NC3=O)C4=O)cc2)cc1NC(=O)c1cccc(-c2ccnc(NCC(F)(F)F)c2)n1 (stereo not drawn) [I-137]	B (>20-50% degradation)			
Cc1ncsc1-c1ccc(CNC(=O)[C@@H]2C[C@@H](O)CN2C(=O)[C@@H](NC(=O)COCCOCCOCCOCCOCCN2CCN([C@H]3CC[C@H](Oc4ncnc5sc6c(c45)[C@@H](C[C@H](O)C(N)=O)CC6)CC3)CC2)C(C)(C)C)cc1 [I-124, (2S,4R)-1-[(2S)-2-[[2-[2-[2-[2-[2-[2-[4-[4-[[(8R)-8-[(2S)-3-amino-2-hydroxy-3-oxo-propyl]-7,8-dihydro-6H-cyclopenta[4,5]thieno[1,2-c]pyrimidin-1-yl]oxy]cyclohexyl]piperazin-1-yl]ethoxy]ethoxy]ethoxy]ethoxy]ethoxy]acetyl]amino]-3,3-dimethyl-butanoyl]-4-hydroxy-N-[[4-(4-methylthiazol-5-yl)phenyl]methyl]pyrrolidine-2-carboxamide]	C (<20% degradation)			
NCc1nn(-c2ccc(C(=O)NCCOCCOCCNc3cccc4c3C(=O)N(C3CCC(=O)NC3=O)C4=O)cc2)cc1NC(=O)c1coc(-c2ccnc(NCC(F)(F)F)c2)n1 (stereo not drawn) [I-215]		A (>50% degradation)	A (>50% degradation)	A (>50% degradation)
O=C1CCC(N2C(=O)c3ccc(N4CCN(CCOCCOCCNCc5ccc(-n6cc(NC(=O)c7coc(-c8ccnc(NCC9CC9)c8)n7)c(C(F)F)n6)cc5)CC4)cc3C2=O)C(=O)N1 (stereo not drawn) [I-337]		C (<20% degradation)	A (>50% degradation)	A (>50% degradation)
CC(OCCNc1cccc2c1C(=O)N(C1CCC(=O)NC1=O)C2=O)C(F)CNC(=O)c1cnc(Nc2ccc3cnccc3n2)cc1NC1CC1 (stereo not drawn) [I-77]	C (<20% degradation)			
N#Cc1cnc2c(cnn2-c2cc(NC3CC3)c(C(=O)NCC(F)COCCOCCOCCNc3cccc4c3C(=O)N(C3CCC(=O)NC3=O)C4=O)cn2)c1 (stereo not drawn) [I-46, 6-(5-Cyanopyrazolo[3,4-b]pyridin-1-yl)-4-(cyclopropylamino)-N-[3-[2-[2-[2-[[2-(2,6-dioxo-3-piperidyl)-1,3-dioxo-isoindolin-4-yl]amino]ethoxy]ethoxy]ethoxy]-2-fluoro-propyl]pyridine-3-carboxamide]	C (<20% degradation)			
NC(=O)c1nn(-c2ccc(COCCOCCOCCOCCNC(=O)COc3cccc4c3C(=O)N(C3CCC(=O)NC3=O)C4=O)cc2)cc1NC(=O)c1coc(-c2ccnc(NCC(F)(F)F)c2)n1 (stereo not drawn) [I-105, N-[3-carbamoyl-1-[4-[2-[2-[2-[2-[[2-[2-(2,6-dioxo-3-piperidyl)-1,3-dioxo-isoindolin-4-yl]oxyacetyl]amino]ethoxy]ethoxy]ethoxy]ethoxymethyl]phenyl]pyrazol-4-yl]-2-[2-(2,2,2-trifluoroethylamino)-4-pyridyl]oxazole-4-carboxamide]	A (>50% degradation)			
Cc1ccc(NS(=O)(=O)c2ccc(CNC(=O)COCCOCCOCCOCCNC(=O)c3ccc(-n4cc(NC(=O)c5coc(-c6ccnc(NCC(F)(F)F)c6)n5)c(C(N)=O)n4)cc3)cc2)c2[nH]cc(C#N)c12 [I-113]	C (<20% degradation)			
O=C1CCC(N2C(=O)c3cccc(NCCOCCOCCOCCOCCNC(=O)c4ccc(-n5cc(NC(=O)c6coc(-c7ccnc(NCC8CC8)c7)n6)c(C(F)F)n5)cc4)c3C2=O)C(=O)N1 (stereo not drawn) [I-212]		B (>20-50% degradation)	A (>50% degradation)	A (>50% degradation)
NC(=O)c1nn(C2CCC(C(=O)NCCOCCOCCNc3cccc4c3C(=O)N(C3CCC(=O)NC3=O)C4=O)CC2)cc1NC(=O)c1coc(-c2ccnc(NCC(F)(F)F)c2)n1 (stereo not drawn) [I-139]	B (>20-50% degradation)			
NC(=O)c1nn(CCOCCOCCOCCNc2cccc3c2C(=O)N(C2CCC(=O)NC2=O)C3=O)cc1NC(=O)c1coc(-c2ccnc(NCC3CC3)c2)n1 (stereo not drawn) [I-239]		C (<20% degradation)	C (<20% degradation)	C (<20% degradation)
NC(=O)c1nn(-c2ccc(CNCC3CCCCN3CCOCCNc3cccc4c3C(=O)N(C3CCC(=O)NC3=O)C4=O)cc2)cc1NC(=O)c1coc(-c2ccnc(NCC(F)(F)F)c2)n1 (stereo not drawn) [I-306]		C (<20% degradation)	B (>20-50% degradation)	B (>20-50% degradation)
CN(CCCc1ccc2c(c1)C(=O)N(C1CCC(=O)NC1=O)C2=O)Cc1ccc(-n2cc(NC(=O)c3coc(-c4ccncc4)n3)c(C(N)=O)n2)cc1 (stereo not drawn) [I-370]		C (<20% degradation)	B (>20-50% degradation)	B (>20-50% degradation)
CN(CCCCCCc1cccc2c1C(=O)N(C1CCC(=O)NC1=O)C2=O)Cc1ccc(-n2cc(NC(=O)c3coc(-c4ccnc(NCC5CC5)c4)n3)c(C(N)=O)n2)cc1 (stereo not drawn) [I-314]		C (<20% degradation)	B (>20-50% degradation)	B (>20-50% degradation)
CC(C)(OCCOCCNC(=O)COc1cccc2c1C(=O)N(C1CCC(=O)NC1=O)C2=O)C(F)CNC(=O)c1cnc(-n2ncc3cc(C#N)cnc32)cc1NC1CC1 (stereo not drawn) [I-101]	C (<20% degradation)			
O=C1CCC(N2C(=O)c3cccc(NCCOCCNC(=O)c4ccc(-n5cc(NC(=O)c6coc(-c7ccnc(NCC8CC8)c7)n6)c(C(F)F)n5)cc4)c3C2=O)C(=O)N1 (stereo not drawn) [I-211]		B (>20-50% degradation)	B (>20-50% degradation)	B (>20-50% degradation)
CC(C)(OCCNCCOCCNc1cccc2c1C(=O)N(C1CCC(=O)NC1=O)C2=O)C(F)CNC(=O)c1cnc(-n2ncc3cc(C#N)cnc32)cc1NC1CC1 (stereo not drawn) [I-129]	C (<20% degradation)			
NC(=O)c1nn(CC#CC#CCOCCOCCNc2cccc3c2C(=O)N(C2CCC(=O)NC2=O)C3=O)cc1NC(=O)c1coc(-c2ccnc(NCC3CC3)c2)n1 (stereo not drawn) [I-434, N-[3-carbamoyl-1-[6-[2-[2-[[2-(2,6-dioxo-3-piperidyl)-1,3-dioxo-isoindolin-4-yl]amino]ethoxy]ethoxy]hexa-2,4-diynyl]pyrazol-4-yl]-2-[2-(cyclopropylmethylamino)-4-pyridyl]oxazole-4-carboxamide]		C (<20% degradation)	C (<20% degradation)	C (<20% degradation)
NC(=O)c1nn(-c2ccc(C(=O)NCC#CC#CCCNc3cccc4c3C(=O)N(C3CCC(=O)NC3=O)C4=O)cc2)cc1NC(=O)c1coc(-c2ccnc(NCC(F)(F)F)c2)n1 (stereo not drawn) [I-178, N-[3-carbamoyl-1-[4-[7-[[2-(2,6-dioxo-3-piperidyl)-1,3-dioxo-isoindolin-4-yl]amino]hepta-2,4-diynylcarbamoyl]phenyl]pyrazol-4-yl]-2-[2-(2,2,2-trifluoroethylamino)-4-pyridyl]oxazole-4-carboxamide]	C (<20% degradation)			
